Reference: patent US20230034660A1, “PEPTIDES THAT ENHANCE NMDA RECEPTOR FUNCTION AND USE THEREOF” (University of Pittsburgh - Of the Commonwealth System of …, priority 2019, published 2023)

System: NMDAR
Test: NMDAR-mediated currents evoked by uncaging MNI-caged glutamate in cortical cultures, ZX1 potentiation
Type: cell-based, rat
Details: cortical cultures treated with peptide 3 μM overnight; held at −70 mV, Mg2+ free
Experimental: FIGS. 5A-5C: N2AZ reduces zinc inhibition of NMDAR currents in cortical cultures. (FIG. 5A) Representative image of a neuron in cortical culture filled with Alexa 548 during whole cell recording. Asterisk represents location of laser photolysis of MNI-caged glutamate (40 μM, 1 millisecond pulse) used to evoke EPSCs. (FIG. 5B) Sample traces of NMDAR EPSCs, averaged over 5 sweeps, evoked by photolysis of MNI-caged glutamate in cortical cultures held at −70 mV in Mg^2 + free solution. […] Bar graphs represent the average potentiation of responses 5 minutes after ZX1 application. Errors bars indicate mean±SEM. […]
Whole-cell recordings from cultured cortical neurons were obtained with glass micropipettes (3-6 MΩ) containing 140 mM CsF, 10 mM CsEGTA, 1 mM CaCl2, 10 mM HEPES, pH=7,2, 295 mOsm. […] Using ephus (Suter et al. 2010) and a Multiclamp 700B amplifier (Molecular Devices), NMDAR excitatory postsynaptic currents (EPSCs) were recorded in voltage clamp (held at −70 mV) in the presence of TTX (300 nM to prevent synaptic activity), DNQX (20 μM, AMPA and kainate receptor antagonist), and 4-Methoxy-7-nitroindolinyl (MNI)-caged glutamate (40 μM). […] The ZX1-mediated potentiation for each cell was calculated as the average percent increase in responses following application of the metal chelator across these 4 uncaging locations. […]

| Sequence | ZX1 potentiation of NMDAR-mediated currents above baseline [%] |
| --- | --- |
| NDSYLRSSL [Peptide N2AZ] | 1.34±3.48 |
| SNLSDSYDR [scN2AZ, reference compound] | 37.40±11.63 |
